Earlier results on 1 compound are cited in patent US20240293435A1, “Methods and Compositions for Treating Human Disorders Using D-Cycloserine and a Psychedelic Agent” (William & Mary, priority 2023, published 2024).

SMILES strings stand for the structures.

Series [1] concerns Mycobacterium tuberculosis strains. As to conditions: typical Mycobacterium tuberculosis strains.

Consider `N[C@@H]1CON=C1O` [DCS, 3-Isoxazolidinone, 4-amino-, (4R)-(9CI)], for which, in series [1], the “minimum inhibitory concentrations (MIC) in vitro” value was 6 to 25 µg/mL. Moreover, the “serum concentrations generally maintained” value (dose of 500 mg/day, chronic treatment) is 25000 to 30000 ng/mL. In addition, under “oral capsules”, the half-life (as a rule, the time in which the quantity being followed falls by half) is 10 h and the “time to peak serum concentrations after dosing” value was 3 to 8 h. Besides, the “benefit on Alzheimer's Disease” value with Alzheimer's Disease (daily administration of 100 mg (Tsai et al. 1999)) is “positive benefit”. Also, the “benefit for treatment of Alzheimer's Disease” value with Alzheimer's Disease (up to 50 mg daily dosing, multi-center 410-patient trial (Fakouhi et al. 1995)) is reported as “did not have a significant benefit”.
